In brackets after ≈: the same amount, converted by molar mass. Each block holds one molecule with its values, some of them ahead of it. Activity calls are given as the source filed them. The calls are words filed in the database; no cut-off is given here.
Legend:
Mus musculus = test: Antialzheimer's disease activity in po dosed APP-YAC transgenic mouse assessed as reduction of amyloid beta-40/42 level in brain measured after 6 hrs; format: functional
Rattus norvegicus [1] = test: Antialzheimer's disease activity in po dosed Sprague-Dawley rat assessed as reduction of amyloid beta-40/42 level in brain measured after 6 hrs; format: functional
[2] = Inhibition of gamma-secretase-mediated cleavage of NotchdeltaE in human HeLa cells expressing NotchdeltaE assessed as intracellular release of Notch intracellular domain (NICD)/N-terminal luciferase by luminescent method; format: cell-based
Gamma-secretase [3] = test: Inhibition of gamma-secretase in human SH-SY5Y cells expressing beta-APP C-terminal fragment SPA4CT assessed as decrease of amyloid beta-40 level by electrochemiluminescent method; format: cell-based
Gamma-secretase [4] = test: Inhibition of gamma-secretase in human SH-SY5Y cells expressing beta-APP C-terminal fragment SPA4CT assessed as decrease of amyloid beta-42 level by electrochemiluminescent method; format: cell-based
[5] = molecular target: T1, Voltage-gated inwardly rectifying potassium channel KCNH2 (Homo sapiens, UniProt Q12809)
Description: Binding affinity to human ERG expressed in HEK cells by MK-499 radioligand displacement assay

[6] = Half life in rat liver microsomes; format: ADME
[7] = Half life in rat hepatocytes; format: ADME, cell-based, Hepatocyte
[8] = Half life in dog hepatocytes; format: ADME, cell-based, Canis lupus familiaris, Hepatocyte
[9] = Half life in rhesus monkey hepatocytes; format: ADME, cell-based, Macaca mulatta, Hepatocyte
[10] = Half life in human hepatocytes; format: ADME, cell-based, Hepatocyte
[11] = Apparent permeability of the compound in pig LLC-PK1 cells; format: ADME, cell-based, Sus scrofa
Rattus norvegicus [12] = test: Dose normalized AUC in Wistar-Han rat at 100 mg/kg, po; format: ADME, organism-based; details: in vivo
[13] = Plasma clearance in Sprague-Dawley rat at 1 mg/kg, iv and 2 mg/kg, po; format: ADME, organism-based
[14] = Volume of distribution at steady state in Sprague-Dawley rat at 1 mg/kg, iv and 2 mg/kg, po; format: ADME, organism-based; details: in vivo, read-out: Vdss
[15] = Half life in Sprague-Dawley rat at 1 mg/kg, iv; format: ADME, organism-based; details: in vivo
Rattus norvegicus [16] = test: Oral bioavailability in Sprague-Dawley rat at 2 mg/kg; format: ADME, organism-based; details: in vivo
Rattus norvegicus [17] = test: Dose normalized AUC (0 to 24 hrs) in Sprague-Dawley rat at 2 mg/kg, po; format: ADME, organism-based; details: in vivo
[18] = Plasma clearance in dog at 0.25 mg/kg, iv and 0.5 mg/kg, po; format: ADME, organism-based, Canis lupus familiaris
[19] = Volume of distribution at steady state in dog at 0.25 mg/kg, iv and 0.5 mg/kg, po; format: ADME, organism-based, Canis lupus familiaris; details: in vivo, read-out: Vdss
[20] = Half life in dog at 0.25 mg/kg, iv; format: ADME, organism-based, Canis lupus familiaris; details: in vivo
[21] = Oral bioavailability in dog at 0.5 mg/kg; format: ADME, organism-based, Canis lupus familiaris; details: in vivo
Canis familiaris = test: Dose normalized AUC (0 to 24 hrs) in dog at 0.5 mg/kg, po; format: ADME, organism-based, Canis lupus familiaris; details: in vivo
[22] = Volume of distribution at steady state in rhesus monkey at 0.25 mg/kg, iv and 0.5 mg/kg, po; format: ADME, organism-based, Macaca mulatta; details: in vivo, read-out: Vdss
[23] = Half life in rhesus monkey at 0.25 mg/kg, iv; format: ADME, organism-based, Macaca mulatta; details: in vivo
[24] = Oral bioavailability in rhesus monkey at 0.5 mg/kg; format: ADME, organism-based, Macaca mulatta; details: in vivo
Rhesus monkey [25] = test: Antialzheimer's disease activity in rhesus monkey cisterna-magna-ported model assessed as reduction of amyloid beta-42 level in CSF at 6 mg/kg bolus dose followed by 4 hrs infusion of 44 mg/kg, iv measured up to 20 hrs; format: functional, organism-based; details: Macaca mulatta
Rhesus monkey [26] = test: Antialzheimer's disease activity in rhesus monkey cisterna-magna-ported model assessed as reduction of amyloid beta-40 level in CSF at 6 mg/kg bolus dose followed by 4 hrs infusion of 44 mg/kg, iv measured up to 20 hrs; format: functional, organism-based; details: Macaca mulatta
[27] = molecular target: Sodium-dependent serotonin transporter (Homo sapiens, UniProt P31645); test: Inhibition of SERT (unknown origin)
Plasma = test: AUC in plasma of rhesus monkey cisterna-magna-ported model at 6 mg/kg bolus dose followed by 4 hrs infusion of 44 mg/kg, iv; format: ADME, organism-based, Macaca mulatta; details: in vivo
[28] = AUC in cerebrospinal fluid of rhesus monkey cisterna-magna-ported model at 6 mg/kg bolus dose followed by 4 hrs infusion of 44 mg/kg, iv; format: ADME, organism-based, Macaca mulatta
[29] = molecular target: T1, Voltage-gated inwardly rectifying potassium channel KCNH2; test: Inhibition of human ERG expressed in HEK cells assessed as reduction in IKr current by patchXpress assay; format: cell-based, HEK293
Rattus norvegicus [30] = test: Antialzheimer's disease activity in Sprague-Dawley rat assessed as reduction of amyloid beta-42 level in brain at 100 mg/kg, po after 6 hrs relative to control; format: functional
[31] = Drug level in Sprague-Dawley rat brain at 100 mg/kg, po after 6 hrs; format: ADME, organism-based; details: read-out: Drug uptake
CYP3A4 [32] = molecular target: T2, CYP3A4 (Homo sapiens, UniProt P08684); test: Inhibition of CYP3A4 (unknown origin) at 10 uM; format: ADME
CYP2C9 = CYP2C9 (Homo sapiens, UniProt P11712); test: Inhibition of CYP2C9 (unknown origin) at 10 uM; format: ADME
CYP2D6 = CYP2D6 (Homo sapiens, UniProt P10635); test: Inhibition of CYP2D6 (unknown origin) at 10 uM; format: ADME
[33] = molecular target: T3, Nuclear receptor subfamily 1 group I member 2 (Homo sapiens, UniProt O75469); test: Activation of PXR (unknown origin); format: ADME
T3 sequence (O75469 whole entry): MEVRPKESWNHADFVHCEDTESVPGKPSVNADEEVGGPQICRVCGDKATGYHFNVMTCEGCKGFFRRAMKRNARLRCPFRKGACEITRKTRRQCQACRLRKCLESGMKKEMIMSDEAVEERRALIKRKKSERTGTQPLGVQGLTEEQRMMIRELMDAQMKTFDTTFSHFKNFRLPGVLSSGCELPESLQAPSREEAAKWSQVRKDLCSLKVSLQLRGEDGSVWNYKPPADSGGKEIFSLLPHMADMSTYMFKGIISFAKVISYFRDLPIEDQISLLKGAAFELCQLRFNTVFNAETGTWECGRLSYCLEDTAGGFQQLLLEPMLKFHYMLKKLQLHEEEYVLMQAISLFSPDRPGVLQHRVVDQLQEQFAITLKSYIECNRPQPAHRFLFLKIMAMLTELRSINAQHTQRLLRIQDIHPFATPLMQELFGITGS

CYP3A4 [34] = molecular target: T2, CYP3A4; test: Time dependent inhibition of CYP3A4 (unknown origin) at 50 uM; format: ADME
[35] = Solubility of the compound at pH 7; format: physicochemical; details: buffer
[36] = Solubility of the compound at pH 2; format: physicochemical; details: buffer
[37] = Lipophilicity, log D of the compound; format: physicochemical; details: octanol/water
[38] = Fraction unbound in rat; format: ADME, organism-based; details: in vivo
[39] = Fraction unbound in dog; format: ADME, organism-based, Canis lupus familiaris; details: in vivo
[40] = Fraction unbound in rhesus monkey; format: ADME, organism-based, Macaca mulatta; details: in vivo
[41] = Fraction unbound in human; format: ADME, organism-based; details: in vivo

T1 sequence (Q12809 whole entry): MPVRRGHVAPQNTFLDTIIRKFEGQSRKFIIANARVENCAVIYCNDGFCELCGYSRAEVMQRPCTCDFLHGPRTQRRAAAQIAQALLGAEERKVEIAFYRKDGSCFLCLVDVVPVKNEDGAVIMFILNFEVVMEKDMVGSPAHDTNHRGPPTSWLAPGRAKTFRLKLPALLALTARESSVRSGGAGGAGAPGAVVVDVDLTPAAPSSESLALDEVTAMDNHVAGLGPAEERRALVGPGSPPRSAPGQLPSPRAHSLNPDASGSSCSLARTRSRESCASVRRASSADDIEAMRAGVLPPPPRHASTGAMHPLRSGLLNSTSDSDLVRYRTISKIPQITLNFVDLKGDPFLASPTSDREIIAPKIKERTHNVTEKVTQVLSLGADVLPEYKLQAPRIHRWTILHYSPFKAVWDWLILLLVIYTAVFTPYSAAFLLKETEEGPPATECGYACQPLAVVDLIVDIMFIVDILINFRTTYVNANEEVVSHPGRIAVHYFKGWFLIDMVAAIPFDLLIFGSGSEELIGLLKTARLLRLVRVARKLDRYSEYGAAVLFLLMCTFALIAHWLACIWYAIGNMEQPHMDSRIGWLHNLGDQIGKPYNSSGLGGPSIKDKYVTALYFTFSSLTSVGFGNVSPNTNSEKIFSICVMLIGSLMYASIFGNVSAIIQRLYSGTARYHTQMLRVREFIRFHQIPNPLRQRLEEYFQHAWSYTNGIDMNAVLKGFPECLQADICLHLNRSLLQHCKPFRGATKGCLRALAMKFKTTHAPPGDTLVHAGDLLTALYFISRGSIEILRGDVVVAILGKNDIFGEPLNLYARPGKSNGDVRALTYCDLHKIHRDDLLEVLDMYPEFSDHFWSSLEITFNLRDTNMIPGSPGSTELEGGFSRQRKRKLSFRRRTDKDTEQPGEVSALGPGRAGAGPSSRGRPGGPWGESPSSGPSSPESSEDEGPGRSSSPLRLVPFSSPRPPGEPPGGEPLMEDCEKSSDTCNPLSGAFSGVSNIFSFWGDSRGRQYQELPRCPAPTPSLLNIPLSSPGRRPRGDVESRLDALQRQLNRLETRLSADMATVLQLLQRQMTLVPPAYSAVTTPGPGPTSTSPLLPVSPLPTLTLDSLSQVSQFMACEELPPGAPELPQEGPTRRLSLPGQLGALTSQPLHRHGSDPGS
T2 sequence (P08684 whole entry): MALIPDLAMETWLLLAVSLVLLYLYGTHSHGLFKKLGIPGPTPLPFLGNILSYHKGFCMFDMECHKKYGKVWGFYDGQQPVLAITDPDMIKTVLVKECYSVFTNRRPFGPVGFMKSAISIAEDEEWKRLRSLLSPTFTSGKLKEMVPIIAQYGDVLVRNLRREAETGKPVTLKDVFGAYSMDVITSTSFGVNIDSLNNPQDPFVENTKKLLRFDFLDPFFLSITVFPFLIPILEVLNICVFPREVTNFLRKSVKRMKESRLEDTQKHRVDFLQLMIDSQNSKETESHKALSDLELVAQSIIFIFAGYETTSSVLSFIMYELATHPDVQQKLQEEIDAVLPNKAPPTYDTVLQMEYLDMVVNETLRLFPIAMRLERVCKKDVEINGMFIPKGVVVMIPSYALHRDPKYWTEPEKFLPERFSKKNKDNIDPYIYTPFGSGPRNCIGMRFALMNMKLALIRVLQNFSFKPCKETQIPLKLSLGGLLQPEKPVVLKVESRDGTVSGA
Chain of CYP2C9 (P11712 whole entry): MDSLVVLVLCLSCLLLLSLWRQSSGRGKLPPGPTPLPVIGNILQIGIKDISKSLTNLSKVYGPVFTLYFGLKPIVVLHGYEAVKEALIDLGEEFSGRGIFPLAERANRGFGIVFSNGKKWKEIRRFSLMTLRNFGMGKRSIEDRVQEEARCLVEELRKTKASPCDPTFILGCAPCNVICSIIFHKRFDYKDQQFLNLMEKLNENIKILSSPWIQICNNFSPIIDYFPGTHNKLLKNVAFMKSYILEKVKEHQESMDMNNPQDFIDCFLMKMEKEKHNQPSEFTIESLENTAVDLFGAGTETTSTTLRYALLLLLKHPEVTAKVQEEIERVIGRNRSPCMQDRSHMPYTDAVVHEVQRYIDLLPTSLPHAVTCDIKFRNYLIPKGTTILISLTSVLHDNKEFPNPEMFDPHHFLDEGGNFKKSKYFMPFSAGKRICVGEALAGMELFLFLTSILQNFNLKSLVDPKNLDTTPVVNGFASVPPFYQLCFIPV
Chain of CYP2D6 (P10635 whole entry): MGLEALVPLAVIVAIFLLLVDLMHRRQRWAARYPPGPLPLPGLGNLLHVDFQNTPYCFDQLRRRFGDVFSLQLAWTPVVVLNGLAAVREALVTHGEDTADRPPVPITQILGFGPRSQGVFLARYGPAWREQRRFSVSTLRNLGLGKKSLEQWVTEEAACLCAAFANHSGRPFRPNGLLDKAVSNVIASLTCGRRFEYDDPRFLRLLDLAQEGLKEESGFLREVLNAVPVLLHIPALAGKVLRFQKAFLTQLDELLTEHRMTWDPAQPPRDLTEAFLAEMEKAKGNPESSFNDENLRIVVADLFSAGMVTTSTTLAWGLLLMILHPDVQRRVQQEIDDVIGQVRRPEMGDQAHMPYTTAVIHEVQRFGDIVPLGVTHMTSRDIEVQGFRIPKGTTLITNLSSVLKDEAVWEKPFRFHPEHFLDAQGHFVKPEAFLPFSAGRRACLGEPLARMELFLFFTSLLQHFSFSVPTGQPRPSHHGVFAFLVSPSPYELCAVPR
Chain of Sodium-dependent serotonin transporter (P31645 whole entry, the tested form may be a part): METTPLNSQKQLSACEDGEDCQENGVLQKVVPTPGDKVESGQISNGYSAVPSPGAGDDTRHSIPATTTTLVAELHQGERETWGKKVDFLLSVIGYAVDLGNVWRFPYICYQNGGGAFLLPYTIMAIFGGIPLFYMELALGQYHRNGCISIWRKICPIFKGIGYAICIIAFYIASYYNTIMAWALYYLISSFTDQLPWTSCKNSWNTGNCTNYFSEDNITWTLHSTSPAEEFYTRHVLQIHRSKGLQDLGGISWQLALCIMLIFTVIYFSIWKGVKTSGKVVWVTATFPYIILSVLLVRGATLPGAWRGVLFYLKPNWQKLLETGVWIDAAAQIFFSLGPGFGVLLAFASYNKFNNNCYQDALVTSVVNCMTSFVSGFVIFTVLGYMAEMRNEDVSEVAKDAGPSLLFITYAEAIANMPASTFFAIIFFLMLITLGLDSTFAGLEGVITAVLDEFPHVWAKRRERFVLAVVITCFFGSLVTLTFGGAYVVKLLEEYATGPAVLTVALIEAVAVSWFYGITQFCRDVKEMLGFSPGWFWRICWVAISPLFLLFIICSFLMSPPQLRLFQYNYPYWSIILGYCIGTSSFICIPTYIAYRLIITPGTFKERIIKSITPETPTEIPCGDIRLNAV

Structure (SMILES): COc1cc(-c2cn(C3CCc4c(F)cc(F)cc4N(CC(F)(F)F)C3=O)nn2)ccc1-n1cnc(C)c1 (centres undefined)
Activity (Mus musculus): Active
Activity (Rattus norvegicus [1]): Active
IC50 [2]: > 50000 nM
IC50 (Gamma-secretase [3]): 150 nM
IC50 (Gamma-secretase [4]): 40 nM

Structure (SMILES): COc1cc(-c2cn(C3CCc4ccccc4N(Cc4ccccn4)C3=O)nn2)ccc1-n1cnc(C)c1 (racemic)
IC50 [2]: > 50000 nM
IC50 (Gamma-secretase [3]): 5400 nM
IC50 (Gamma-secretase [4]): 1080 nM

Structure (SMILES): COc1cc(-c2cn(C3CCc4ccccc4NC3=O)nn2)ccc1-n1cnc(C)c1 (centres undefined)
IC50 [2]: 33000 nM
IC50 (Gamma-secretase [3]): 4720 nM
IC50 (Gamma-secretase [4]): 390 nM

Structure (SMILES): COc1cc(-c2cn(C3CCc4cccnc4N(CC(F)(F)F)C3=O)nn2)ccc1-n1cnc(C)c1 (centres undefined)
Activity (Mus musculus): Active
Activity (Rattus norvegicus [1]): Active
IC50 [2]: > 50000 nM
IC50 (Gamma-secretase [3]): 1340 nM
IC50 (Gamma-secretase [4]): 180 nM
IC50 [5]: 8740 nM

Structure (SMILES): COc1cc(-c2cn(C3CCc4ccccc4N(CCF)C3=O)nn2)ccc1-n1cnc(C)c1 (centres undefined)
IC50 [2]: > 50000 nM
IC50 (Gamma-secretase [3]): 3140 nM
IC50 (Gamma-secretase [4]): 440 nM

Structure (SMILES): COc1cc(-c2cn(C3CCc4cc(F)ccc4N(CC(F)(F)F)C3=O)nn2)ccc1-n1cnc(C)c1 (centres undefined)
Activity (Mus musculus): Active
Activity (Rattus norvegicus [1]): Active
IC50 [2]: 34100 nM
IC50 (Gamma-secretase [3]): 190 nM
IC50 (Gamma-secretase [4]): 40 nM
IC50 [5]: 2680 nM

Structure (SMILES): COc1cc(-c2cn(C3CCc4c(F)cccc4N(CC(F)(F)F)C3=O)nn2)ccc1-n1cnc(C)c1 (centres undefined) [GSM1]
half-life [7]: 0.6 h
half-life [8]: 1.12 h
half-life [9]: 0.817 h
half-life [10]: 1.02 h
Papp [11]: 25 ×10⁻⁶ cm/s
AUC/dose (Rattus norvegicus [12]): 8.8 µM·kg·h/mg
clearance [13]: 38 mL/min/kg
Vd [14]: 4.8 L/kg
half-life [15]: 0.8 h
F (Rattus norvegicus [16]): 190%
AUCt/dose (Rattus norvegicus [17]): 1.6 µM·kg·h/mg
clearance [18]: 82 mL/min/kg
Vd [19]: 14 L/kg
half-life [20]: 6.2 h
bioavailability [21]: < 5%
AUCt/dose (Canis familiaris): 0.1 µM·kg·h/mg
Vd [22]: 2 L/kg
half-life [23]: 1.2 h
bioavailability [24]: < 5%
Activity (Rhesus monkey [25]): Active
Activity (Rhesus monkey [26]): inactive
IC50 [27]: 32 nM
AUC (Plasma): 183 µM·h
AUC at 4 h [28]: 2.2 µM·h
IC50 [29]: 12900 nM
inhibition in vivo at 100 mg/kg (Rattus norvegicus [30]): 92%
concentration at 6 h [31]: 35 µM
ED50 (Mus musculus): 15 mg/kg
ED50 (Rattus norvegicus [1]): 15 mg/kg
IC50 [2]: 39800 nM
inhibition at 10 µM (CYP3A4 [32]): 42%
inhibition at 10 µM (CYP2C9): 68%
inhibition at 10 µM (CYP2D6): 28%
EC50 [33]: > 30000 nM
inhibition at 50 µM (CYP3A4 [34]): 18%
solubility [35]: 5.6 µM (≈ 2.88 µg/mL)
solubility [36]: 180 µM (≈ 92.6 µg/mL)
logD [37]: 3.3
fraction unbound [38]: 0.037
fraction unbound [39]: 0.058
fraction unbound [40]: 0.057
fraction unbound [41]: 0.036
IC50 [5]: 2610 nM

More lines, main results first:

IC50 [2]: > 50000 nM
IC50 (Gamma-secretase [3]): 700 nM
IC50 (Gamma-secretase [4]): 150 nM
Structure (SMILES): COc1cc(-c2cn(C3CCc4ccccc4N(CC(F)F)C3=O)nn2)ccc1-n1cnc(C)c1 (centres undefined)

half-life [6]: 0.583 h
IC50 [2]: > 50000 nM
IC50 (Gamma-secretase [3]): 320 nM
IC50 (Gamma-secretase [4]): 70 nM
Structure (SMILES): COc1cc(-c2cn(C3CCc4ccccc4N(CC(F)(F)F)C3=O)nn2)ccc1-n1cnc(C)c1 (centres undefined)

half-life [6]: 1.2 h
IC50 [2]: 36600 nM
IC50 (Gamma-secretase [3]): 170 nM
IC50 (Gamma-secretase [4]): 40 nM
Structure (SMILES): COc1cc(-c2cn([C@H]3C[C@H](C)c4ccccc4N(CC(F)(F)F)C3=O)nn2)ccc1-n1cnc(C)c1
Activity (Mus musculus): Active
Activity (Rattus norvegicus [1]): Active
IC50 [5]: 6680 nM

IC50 [2]: > 50000 nM
IC50 (Gamma-secretase [3]): 6380 nM
IC50 (Gamma-secretase [4]): 580 nM
Structure (SMILES): COc1cc(-c2cn(C3(C)CCc4ccccc4N(CC(F)(F)F)C3=O)nn2)ccc1-n1cnc(C)c1 (centres undefined)
Activity (Mus musculus): Active
Activity (Rattus norvegicus [1]): Active
IC50 [5]: 6000 nM
